Assays:
[1] = Determination of brain to plasma ratio in rat; assay type: in vivo; conditions: brain and plasma, female Sprague Dawley rats, drug in brain over drug in plasma, read-out: Brain/Plasma Ratio of compound in Rat
Method: Brain to plasma ratios are estimated in female Sprague Dawley rats. The compound is dissolved in water or another appropriate vehicle. For determination of brain to plasma ratio the compound is administrated as a subcutaneous, or an intravenous bolus injection, or an intravenous infusion, or an oral administration. At a predetermined time point after the administration a blood sample is taken with cardiac puncture. The rat is terminated by cutting the heart open, and the brain is immediately retained. The blood samples are collected in heparinized tubes and centrifuged within 30 minutes, in order to separate the plasma from the blood cells. The plasma is transferred to 96-well plates and stored at −20° C. until analysis. The brains are divided in half, and each half is placed in a pre-tarred tube and stored at −20° C. until analysis. Prior to the analysis, the brain samples are thawed and 3 mL/g brain tissue of distilled water is added to the tubes. The brain samples are sonicated in an ice bath until the samples are homogenized. Both brain and plasma samples are precipitated with acetonitrile. After centrifugation, the supernatant is diluted with 0.2% formic acid. Analysis is performed on a short reversed-phase HPLC column with rapid gradient elution and MSMS detection using a triple quadrupole instrument with electrospray ionisation and Selected Reaction Monitoring (SRM) acquisition. Liquid-liquid extraction may be used as an alternative sample clean-up. The samples are extracted, by shaking, to an organic solvent after addition of a suitable buffer. An aliquot of the organic layer is transferred to a new vial and evaporated to dryness under a stream of nitrogen. After reconstitution of the residuals the samples are ready for injection onto the HPLC column.

human mGluR5d = target: T1, human mGluR5d (Homo sapiens, UniProt P41594); assay: FLIPR assay, mobilization of intracellular calcium in cells expressing human mGluR5d; assay type: cell-based; conditions: antagonism in cells expressing human mGluR5d, fluo-4 calcium signal; read-out: FLIPR hmGluR5d
T1 construct: expressed in transfected cells
Description: Functional Assessment of mGluR5 Antagonism in Cell Lines Expressing mGluR5D
The properties of the compounds of the invention can be analyzed using standard assays for pharmacological activity. Examples of glutamate receptor assays are well known in the art as described in for example Aramori et al., Neuron 8:757 (1992), Tanabe et al., Neuron 8:169 (1992), Miller et al., J. Neuroscience 15: 6103 (1995), Balazs, et al., J. Neurochemistry 69:151 (1997). The methodology described in these publications is incorporated herein by reference. Conveniently, the compounds of the invention can be studied by means of an assay (FLIPR) that measures the mobilization of intracellular calcium, [Ca^2+]i in cells expressing mGluR5 or another assay (IP3) that measures inositol phosphate accumulation.
Cells expressing human mGluR5d as described in WO97/05252 cultured in a mixture of high glucose DMEM with Glutamax (31966-021) (500 mL), 10% dialyzed fetal bovine serum (Hyclone #SH30079.03)(56 mL), 200 ug/mL Hygromycin B (Invitrogen 45-0430, 50 mg/mL) (2.2 mL), 200 ug/mL Zeocin (Invitrogen #R250-01; 100 mg/mL) (1.1 mL) are seeded at a density of 15,000 cells per well on a black poly-D Lysin coated 384-plate with clear bottom (BD Biocoat 356663). Cells are allowed to adhere over night before experiments. All assays are done in a buffer containing 146 mM NaCl, 5 mM KCl, 1 mM MgCl2, 1 mM CaCl2, 20 mM HEPES, 1 mg/mL glucose and 1 mg/mL BSA Fraction IV (pH 7.4). Cell cultures in the 384-well plates are loaded for 60 minutes in the above mentioned buffer containing 3 μM of the acetoxymethyl ester form of the fluorescent calcium indicator fluo-4 (Molecular Probes, Eugene, Oreg.) in 0.025% pluronic acid (a proprietary, non-ionic surfactant polyol—CAS Number 9003-11-6). Following the loading period, the fluo-4 buffer is removed and the cellplate is washed three times with fresh assay buffer. FLIPR experiments are done using a laser setting of 1.0 W and 0.4 second CCD camera shutter speed with excitation and emission wavelengths of 488 nm and 562 nm, respectively.
Each experiment is initiated with 20 μl of buffer present in each well of the cell plate when 7.5 μl from the antagonist plate is added. After 30 minutes incubation in the dark at 25° C., 20 μL from the agonist plate is added to the wells. The fluorescence signal is sampled 60 times at 1 second intervals followed by 20 samples at 6 seconds intervals immediately after the agonist addition. Responses are measured as the difference between the peak height of the response to agonist, less the background fluorescence within the sample period. IC50 determinations are made using a […] least squares fitting program.

T1 sequence (P41594 21-942 isoform P41594-3 limits assumed): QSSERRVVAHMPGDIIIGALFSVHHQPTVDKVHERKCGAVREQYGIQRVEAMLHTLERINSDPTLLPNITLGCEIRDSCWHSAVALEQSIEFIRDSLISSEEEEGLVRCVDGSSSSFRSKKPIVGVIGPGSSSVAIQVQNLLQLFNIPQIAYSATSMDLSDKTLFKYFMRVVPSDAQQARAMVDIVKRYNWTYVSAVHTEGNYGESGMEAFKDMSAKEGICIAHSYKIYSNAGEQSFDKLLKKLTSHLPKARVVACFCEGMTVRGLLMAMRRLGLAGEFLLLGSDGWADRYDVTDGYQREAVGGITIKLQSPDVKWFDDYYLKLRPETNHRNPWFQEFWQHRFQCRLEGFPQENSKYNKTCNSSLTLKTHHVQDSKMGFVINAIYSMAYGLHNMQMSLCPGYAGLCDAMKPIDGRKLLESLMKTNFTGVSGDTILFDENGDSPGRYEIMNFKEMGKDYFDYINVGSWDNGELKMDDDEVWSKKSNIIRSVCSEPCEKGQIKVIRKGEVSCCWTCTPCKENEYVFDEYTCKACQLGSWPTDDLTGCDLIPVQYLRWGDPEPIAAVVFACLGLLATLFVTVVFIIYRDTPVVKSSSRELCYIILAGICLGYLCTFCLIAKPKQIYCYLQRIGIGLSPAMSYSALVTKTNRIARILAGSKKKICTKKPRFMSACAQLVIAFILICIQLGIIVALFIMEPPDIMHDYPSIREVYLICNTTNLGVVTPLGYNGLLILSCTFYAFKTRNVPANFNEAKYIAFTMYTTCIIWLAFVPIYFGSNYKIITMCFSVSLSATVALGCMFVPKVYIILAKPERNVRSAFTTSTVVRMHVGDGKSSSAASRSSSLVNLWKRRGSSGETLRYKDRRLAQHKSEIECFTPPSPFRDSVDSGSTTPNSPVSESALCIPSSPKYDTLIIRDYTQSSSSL

Compound	Kp [1]	IC50 (human mGluR5d)
Cc1cccc(-n2nnc([C@@H](C)Sc3nnc(-c4cc[nH]c(=O)c4)n3C)n2)c1 [Example 8.1, (R)-4-(4-Methyl-5-(1-(2-m-tolyl-2H-tetrazol-5-yl)ethylthio)-4H-1,2,4-triazol-3-yl)pyridin-2(1H)-one]	< 0.01	19 nM
Cc1cccc(-n2nnc([C@@H](C)Sc3nnc(-c4ccn(C)c(=O)c4)n3C)n2)c1 [Example 8.2, (R)-1-Methyl-4-(4-methyl-5-(1-(2-m-tolyl-2H-tetrazol-5-yl)ethylthio)-4H-1,2,4-triazol-3-yl)pyridin-2(1H)-one]	0.1	87 nM
Cc1cccc(-c2nc([C@@H](C)Sc3nnc(-c4cc[nH]c(=O)c4)n3C)no2)c1 [Example 8.3]	0.09	24 nM
Cc1cccc(-c2nc([C@@H](C)Sc3nnc(-c4ccn(C)c(=O)c4)n3C)no2)c1 [Example 8.4, (R)-1-Methyl-4-(4-methyl-5-(1-(5-m-tolyl-1,2,4-oxadiazol-3-yl)ethylthio)-4H-1,2,4-triazol-3-yl)pyridin-2(1H)-one]	0.16	30 nM
Cc1cccc(-c2cc([C@@H](C)Sc3nnc(-c4cc[nH]c(=O)c4)n3C)no2)c1 [Example 8.5, (R)-4-(4-Methyl-5-(1-(5-m-tolylisoxazol-3-yl)ethylthio)-4H-1,2,4-triazol-3-yl)pyridin-2(1H)-one]	< 0.01	146 nM
Cc1cccc(-c2cc([C@@H](C)Sc3nnc(-c4ccn(C)c(=O)c4)n3C)no2)c1 [Example 8.6, (R)-1-Methyl-4-(4-methyl-5-(1-(5-m-tolylisoxazol-3-yl)ethylthio)-4H-1,2,4-triazol-3-yl)pyridin-2(1H)-one]	0.02	380 nM
Cc1cccc(-c2cc([C@@H](C)Sc3nnc(-c4cn[nH]c(=O)c4)n3C)no2)c1 [Example 8.7, (R)-5-(4-Methy1-5-(1-(5-m-tolylisoxazol-3-yl)ethylthio)-4H-1,2,4-triazol-3-yl)pyridazin-3(2H)-one]	0.26	19 nM
Cc1cccc(-n2nnc([C@@H](C)Sc3nnc(-c4cn[nH]c(=O)c4)n3C)n2)c1 [Example 8.8, (R)-5-(4-Methyl-5-(1-(2-m-tolyl-2H-tetrazol-5-yl)ethylthio)-4H-1,2,4-triazol-3-yl)pyridazin-3(2H)-one]	< 0.01	18 nM
C[C@@H](Sc1nnc(-c2cn[nH]c(=O)c2)n1C)c1nnn(-c2cccc(Cl)c2)n1 [Example 8.9, (R)-5-(5-(1-(2-(3-Chlorophenyl)-2H-tetrazol-5-yl)ethylthio)-4-methyl-4H-1,2,4-triazol-3-yl)pyridazin-3(2H)-one]	< 0.015	18 nM
Cc1cccc(-c2nc([C@@H](C)Sc3nnc(-c4cn[nH]c(=O)c4)n3C)no2)c1 [Example 8.10, (R)-5-(4-Methyl-5-(1-(5-m-tolyl-1,2,4-oxadiazol-3-yl)ethylthio)-4H-1,2,4-triazol-3-yl)pyridazin-3(2H)-one]	0.04	41 nM

Reference: patent US20100273805A1, “SULPHIDE BRIDGED DERIVATIVES AS MODULATORS OF MGLUR5 733” (AstraZeneca AB, priority 2009, published 2010)
